Reference: PubChem BioAssay (NCI)
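All cell lines were grown in 96-well plates and treated with compound for 48 hours. TGI denotes the concentration required for complete inhibition of growth.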

Experiments:
Experiment in all cases: NCI-60 cell line screen, 48 h
[1] = system: A498 renal
[2] = system: DU-145 prostate
[3] = system: HCC-2998 colon
[4] = system: HOP-62 NSCLC
[5] = system: MDA-MB-231 breast
[6] = system: NCI/ADR-RES ovarian
[7] = system: SK-OV-3 ovarian
[8] = system: SN12C renal
[9] = system: SNB-19 CNS
[10] = system: SW-620 colon

Measured: TGI

COc1ccc(N2C(=O)C3c4[nH]c5ccc(C)cc5c4C4CCC(C(C)C)CC4C3C2=O)cc1 (stereo not given)
> 100 µM: all assays above
